In patent US5578622A, “Isothiazole derivatives and their uses” (Asamura Patent Office, priority 1994, dated 1996):

Legend:
[1] = tested on: Pseudoperonospora cubensis; test: Test for controlling effect on downy mildew of cucumber; format: in vivo; conditions: 168 h, 200 ppm spray, one day before inoculation, cucumber 2-leaf stage, read-out: Controlling effect (control of disease), Downy mildew of cucumber
Description: 2-2 Test for controlling effect on downy mildew of cucumber (Pseudoperonospora cubensis) A test compound adjusted to 200 ppm was sprayed onto cucumber at the 2-leaf stage cultivated in pots. After one day, the cucumber was inoculated by spraying the zoospore suspension of Pseudoperonospora cubensis. After inoculation, the cucumber was placed in a 25° C.-humid room for 1 day and then in a greenhouse for 6 days. Thus, the cucumber was made to be infected with downy mildew. The control of disease of the test compound is calculated by comparing the degree of infection of each leaf with that in the untreated plot. The control of disease is shown as a controlling effect in the same manner as in Test Example 2-1.

[2] = tested on: Aspergillus fumigatus TIMM 0063; test: In vitro antimycotic activity on Aspergillus fumigatus; format: cell-based; conditions: TIMM0063, 10 (ppm), Casitone agar, 37° C., 48 hours, read-out: Antimycotic activity (growth inhibitory rate), A.fumigatus
Description: 3-2 In vitro antimycotic activity on Aspergillus fumigatus.
To Aspergillus fumigatus TIMM 0063 precultured at 37° C. for 48 hours on a potato dextrose agar (PDA) slant medium was added a sterilized physiological salt solution containing 0.1%(W/V) Tween 80. After conidia were made free from the solution, the solution was filtered through a sterilized two-sheet gauze to remove the mycelium mass. The number of the conidia in the resulting suspension was counted with a globulimeter and adjusted so as to be 1×10^5 conidia/ml with a sterilized physiological salt solution containing 0.1%(W/V) Tween 80. This solution was used as an inoculum solution. Casitone agar plate medium containing the DMSO solution of the test compound in a rate of 1% (V/V) was inoculated with the inoculum solution at four places thereof with a microplanter, and cultured with the medium allowed to stand at 37° C. for 48 hours. After culture, the diameter of the mycelium disks cultivated at the four inoculated parts was measured, and its mean value was obtained. The growth inhibitory rate was calculated according to the following equation, and the antimycotic activity was shown in the same manner as in Test Example 3-1.
Growth inhibitory rate (%)=(1-W'/Y')×100
Y': Diameter of mycelium disk of DMSO control group
W': Diameter of mycelium disk of test compound group

[3] = tested on: Gibberella fujikuroi ("Bakanae" disease of rice); test: Test for rice seed-disinfecting effect; format: in vivo; conditions: Fusarium fujikuroi, 504 h, seed immersion 25° C. 24 hours, three weeks after treatment, read-out: Controlling effect (control of disease), "Bakanae" disease of rice
Description: 2-1 Test for rice seed-disinfecting effect
Unhulled rice infected with Gibberella fujikuroi ("Bakanae" disease of rice) was immersed in a test compound adjusted to 1000 ppm at 25° C. for 24 hours. Water was lightly swished off the seed, which was then sowed and germinated for two days. Three weeks after treatment with the solution containing the compound, the rate of the infected seedlings was examined, and the control of disease was calculated by comparison with that of the untreated plot. The control of disease was shown as a controlling effect on the basis of the following standard.

[4] = tested on: Trichophyton mentagrophytes IFO 5810; test: In vitro antimicrobial activity on Trichophyton mentagrophytes; format: cell-based; parameters: key: A: Fungus is not observed at all with the naked eye.; B: Presence of fungus is slightly observed on shaking the test tube.; C: Fungus of about less than one-fourth that of the DMSO control group is observed with the naked eye.; Fungus of about less than half that of the DMSO control group is observed with the naked eye; conditions: 10 (ppm); SGB, 27° C., 7 days
Description: 3-3 In vitro antimicrobial activity on Trichophyton mentagrophytes To Trichophyton mentagrophytes IFO 5810 precultured at 27° C. for 2 to 3 weeks on a Sabouraud's glucose agar (SGA) slant medium was added a sterilized physiological salt solution containing 0.1% (W/V) Tween 80. After conidia were made free from the solution, the solution was filtered through a sterilized two-sheet gauze to remove the mycelium mass. The number of the conidia in the resulting suspension was counted with a globulimeter and adjusted so as to be 1×10^6 conidia/ml with a sterilized physiological salt solution containing 0.1%(W/V) Tween 80. This solution was used as an inoculum solution. Thereafter, 0.1 ml of this solution and 0.1 ml of the dimethyl sulfoxide (DMSO) solution of the test compound were added to 9.8 ml of Sabouraud's glucose broth (SGB), and shake-cultured at 27° C. for 7 days.

[5] = tested on: Candida albicans IFO 1270; test: In vitro antimycotic activity on Candida albicans; format: cell-based; conditions: IFO1270, 10 (ppm), SGB, 37° C., 48 hours, turbidity at 650 nm, read-out: Antimycotic activity (growth inhibitory rate), C.albicans
Description: 3-1 In vitro antimycotic activity on Candida albicans
Candida albicans IFO 1270 pre-cultured on a Sabouraud's glucose agar (SGA) plate medium at 37° C. […] was suspended in a sterilized physiological salt solution. The number of fungi in the resulting suspension was counted with a globulimeter, and adjusted so as to be 1×10^7 cell/ml with a sterilized physiological salt solution. This solution was used as an inoculum solution. Thereafter, 0.1 ml of this solution and 0.1 ml of a dimethyl sulfoxide (DMSO) solution of the test compound were added to 9.8 ml of Sabouraud's glucose broth (SGB), and shake-cultured at 37° C. for 48 hours. After culture, the medium turbidity was measured at 650 nm, and the growth-inhibitory rate of the fungus was calculated according to the following equation.
Growth inhibitory rate (%)=(1-W/Y)×100
Y: Medium turbidity of DMSO control group
W: Medium turbidity of test compound group
From this inhibitory rate, the antimycotic activity was shown by the symbols A to D. The test results of the test compounds are shown in Table 4.

Rhizoctonia solani = test: Test for controlling effect on sheath blight of rice; format: in vivo; conditions: 120 h, 200 ppm spray, 24 hours after inoculation, rice 4-leaf stage, five days after inoculation, read-out: Controlling effect (control of disease), Sheath blight of rice
Description: 2-3 Test for controlling effect on sheath blight of rice (Rhizoctonia solani) Rice seedlings at the 4-leaf stage were inoculated with the mycelium of sheath blight of rice (Rhizoctonia solani). After 24 hours, a test medicine solution adjusted to 200 ppm was sprayed onto the seedlings. After air-drying, the seedlings were placed in a humid room for 24 hours where the temperature was kept at 28° C. and humidity was kept at 98%. Thereafter, the seedlings were transferred to a greenhouse, and five days after inoculation, the degree of infected area was examined. The control of disease was calculated by comparison with that in the untreated plot. The control of disease is shown as a controlling effect in the same manner as in Test Example 2-1.

Trichoderma viride = test: Test for wood rotting-preventing effect (mycelium growth inhibition on malt extract agar); format: cell-based; conditions: 28° C.±2° C., 2 to 10 days, read-out: Rotting preventing effect (mycelium growth-inhibitory rate), TRV
Description: (§1) The following fungi were cultured in agar media, respectively, and mycelial disks on the media were stamped out together with the agar using a cork borer of 4 mm in diameter. The resulting mycelial disks on agar were used as an inoculum. Each test compound of 50 ppm was added to a malt extract agar medium and added in parts to Petri dishes. The above prepared inoculum was put on the Petri dishes and cultured at 28° C.±2° C. Two to ten days after inoculation, the diameter of the mycelial disk of each fungus was measured, and the mycelium growth-inhibitory rate was obtained according to the following equation. [formula] The mycelium growth-inhibitory rate (%) is indicated by the following symbols as a fungicidal effect on each fungus, and the results are shown in Table 2. | TRV: Trichoderma viride

Aspergillus niger = test: as above; format: cell-based; conditions: 28° C.±2° C., 2 to 10 days, read-out: Rotting preventing effect (mycelium growth-inhibitory rate), ASN
Description: as §1, with “ASN: Aspergillus niger” for “TRV: Trichoderma viride”

Tyromyces palustris = test: as above; format: cell-based; conditions: 28° C.±2° C., 2 to 10 days, read-out: Rotting preventing effect (mycelium growth-inhibitory rate), TYP
Description: as §1, with “TYP: Tyromyces palustris” for “TRV: Trichoderma viride”

Rhizopus nigricans = test: as above; format: cell-based; conditions: Rhizopus stolonifer, 28° C.±2° C., 2 to 10 days, read-out: Rotting preventing effect (mycelium growth-inhibitory rate), RHN
Description: as §1, with “RHN: Rhizopus nigricans” for “TRV: Trichoderma viride”

## N#CCOc1nsc(SCOCC#CI)c1C#N [Compound 63]
[1]
  pest or weed control at 200 ppm: 95 to 100%
[2]
  inhibition of growth at 10 µg/mL: 100%
[3]
  pest or weed control at 1000 ppm: 95 to 100%
[4]
  Antimycotic activity (degree of growth, naked eye), T.mentagrophytes: A
[5]
  inhibition of growth at 10 µg/mL: 100%
Rhizoctonia solani
  pest or weed control at 200 ppm: 80 to 94%

## CSc1snc(SCOCC#CI)c1C#N [Compound 128, 3-(3-iodo-2-propynyloxymethylthio)-4-cyano-5-methylthioisothiazole]
[1]
  pest or weed control at 200 ppm: 95 to 100%
[2]
  inhibition of growth at 10 µg/mL: 100%
[3]
  pest or weed control at 1000 ppm: 80 to 94%
[4]
  Antimycotic activity (degree of growth, naked eye), T.mentagrophytes: A
[5]
  inhibition of growth at 10 µg/mL: 100%
Rhizoctonia solani
  pest or weed control at 200 ppm: 60 to 79%

## CN1CCN(c2snc(OCC#CI)c2C#N)CC1 [Compound 36]
[2]
  inhibition of growth at 10 µg/mL: 100%
Trichoderma viride
  inhibition at 50 ppm: 95 to 100%
[4]
  Antimycotic activity (degree of growth, naked eye), T.mentagrophytes: A
[5]
  inhibition of growth at 10 µg/mL: 100%
Aspergillus niger
  inhibition at 50 ppm: 80 to 94%
Tyromyces palustris
  inhibition at 50 ppm: 95 to 100%
Rhizopus nigricans
  inhibition at 50 ppm: 80 to 94%

## CC(C)Sc1snc(OCC#CI)c1C#N [Compound 4]
[1]
  pest or weed control at 200 ppm: 95 to 100%
[2]
  inhibition of growth at 10 µg/mL: 100%
[3]
  pest or weed control at 1000 ppm: 95 to 100%
[4]
  Antimycotic activity (degree of growth, naked eye), T.mentagrophytes: A
[5]
  inhibition of growth at 10 µg/mL: 100%
Rhizoctonia solani
  pest or weed control at 200 ppm: 80 to 94%

## CCOc1snc(OCC#CI)c1C#N [Compound 22]
[2]
  inhibition of growth at 10 µg/mL: 100%
Trichoderma viride
  inhibition at 50 ppm: 95 to 100%
[4]
  Antimycotic activity (degree of growth, naked eye), T.mentagrophytes: A
[5]
  inhibition of growth at 10 µg/mL: 100%
Aspergillus niger
  inhibition at 50 ppm: 95 to 100%
Tyromyces palustris
  inhibition at 50 ppm: 95 to 100%
Rhizopus nigricans
  inhibition at 50 ppm: 95 to 100%

## COc1nsc(SC(C)OCC#CI)c1C#N (stereo not drawn) [Compound 125]
[1]
  pest or weed control at 200 ppm: 95 to 100%
[2]
  inhibition of growth at 10 µg/mL: 100%
[3]
  pest or weed control at 1000 ppm: 95 to 100%
[4]
  Antimycotic activity (degree of growth, naked eye), T.mentagrophytes: A
[5]
  inhibition of growth at 10 µg/mL: 100%
Rhizoctonia solani
  pest or weed control at 200 ppm: 95 to 100%

## N#Cc1c(SC(F)F)nsc1SCOCC#CI [Compound 138]
[2]
  inhibition of growth at 10 µg/mL: 100%
Trichoderma viride
  inhibition at 50 ppm: 95 to 100%
[4]
  Antimycotic activity (degree of growth, naked eye), T.mentagrophytes: A
[5]
  inhibition of growth at 10 µg/mL: 100%
Aspergillus niger
  inhibition at 50 ppm: 95 to 100%
Tyromyces palustris
  inhibition at 50 ppm: 95 to 100%
Rhizopus nigricans
  inhibition at 50 ppm: 95 to 100%

## N#Cc1c(OC(F)F)nsc1OCC#CI [Compound 50]
[1]
  pest or weed control at 200 ppm: 95 to 100%
[2]
  inhibition of growth at 10 µg/mL: 100%
[3]
  pest or weed control at 1000 ppm: 95 to 100%
[4]
  Antimycotic activity (degree of growth, naked eye), T.mentagrophytes: A
[5]
  inhibition of growth at 10 µg/mL: 100%
Rhizoctonia solani
  pest or weed control at 200 ppm: 95 to 100%

## CCOCCSc1snc(OCC#CI)c1C#N [Compound 16]
[2]
  inhibition of growth at 10 µg/mL: 100%
Trichoderma viride
  inhibition at 50 ppm: 95 to 100%
[4]
  Antimycotic activity (degree of growth, naked eye), T.mentagrophytes: A
[5]
  inhibition of growth at 10 µg/mL: 100%
Aspergillus niger
  inhibition at 50 ppm: 80 to 94%
Tyromyces palustris
  inhibition at 50 ppm: 95 to 100%
Rhizopus nigricans
  inhibition at 50 ppm: 80 to 94%

## CC(C#CI)OCOc1nsc(SC(F)F)c1C#N (stereo not drawn) [Compound 111]
[2]
  inhibition of growth at 10 µg/mL: 100%
Trichoderma viride
  inhibition at 50 ppm: 95 to 100%
[4]
  Antimycotic activity (degree of growth, naked eye), T.mentagrophytes: A
[5]
  inhibition of growth at 10 µg/mL: 100%
Aspergillus niger
  inhibition at 50 ppm: 95 to 100%
Tyromyces palustris
  inhibition at 50 ppm: 95 to 100%
Rhizopus nigricans
  inhibition at 50 ppm: 95 to 100%

## C=CCOc1nsc(SCOCC#CI)c1C#N [Compound 57]
[2]
  inhibition of growth at 10 µg/mL: 100%
Trichoderma viride
  inhibition at 50 ppm: 95 to 100%
[4]
  Antimycotic activity (degree of growth, naked eye), T.mentagrophytes: A
[5]
  inhibition of growth at 10 µg/mL: 100%
Aspergillus niger
  inhibition at 50 ppm: 95 to 100%
Tyromyces palustris
  inhibition at 50 ppm: 95 to 100%
Rhizopus nigricans
  inhibition at 50 ppm: 95 to 100%
